Measurements reported in ChEMBL document CHEMBL6096689, “Structure-Guided Development of ClpP Agonists with Potent Therapeutic Activities against Staphylococcus aureus Infection” (J Med Chem, 2025).
Values after ≈ are worked out from the molar mass of the structure shown. Active and inactive are the calls of the source. No cut-off for these calls is given here.

Tests used:
[1] = target: T1, ATP-dependent Clp protease proteolytic subunit (Staphylococcus aureus (strain NCTC 8325), UniProt Q2G036); experiment: Agonist activity at Staphylococcus aureus ClpP extracted from Escherichia coli BL21 (DE3) cells using alpha-casein as substrate assessed as substrate hydrolysis preincubated for 15 mins followed by substrate addition and measured after 2 hrs by SDS-PAGE analysis
T1 sequence (Q2G036 whole entry): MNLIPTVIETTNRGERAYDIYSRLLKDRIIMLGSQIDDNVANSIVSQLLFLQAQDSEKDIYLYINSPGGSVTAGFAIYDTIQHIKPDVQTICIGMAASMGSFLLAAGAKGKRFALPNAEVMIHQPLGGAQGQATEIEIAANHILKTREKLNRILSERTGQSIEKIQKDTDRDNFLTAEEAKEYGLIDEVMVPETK

[2] = target: T1, ATP-dependent Clp protease proteolytic subunit; experiment: (§1) Agonist activity at Staphylococcus aureus ClpP extracted from Escherichia coli BL21 (DE3) cells using FITC-casein as substrate assessed as substrate hydrolysis preincubated for 60 mins followed by substrate addition and measured after 1 hrs by fluorescence based analysis
[3] = target: T2, ATP-dependent Clp protease proteolytic subunit (Staphylococcus aureus (strain NCTC 8325)) (UniProt Q2G036); experiment: as §1, with “Potency index, ratio of ONC212 EC50 to test compound EC50 for agonist” for “Agonist”; settings: time 120.0 min
T2 sequence (whole entry): T1 sequence (Q2G036 whole entry)

[4] = target: ATP-dependent Clp protease proteolytic subunit, mitochondrial (Homo sapiens, UniProt Q16740); experiment: Induction of thermal stabilization of human ClpP extracted from Escherichia coli Rosetta (DE3) cells assessed as change in melting temperature at 10 uM incubated for 10 mins by DSF analysis
Sequence of ATP-dependent Clp protease proteolytic subunit, mitochondrial (Q16740 whole entry): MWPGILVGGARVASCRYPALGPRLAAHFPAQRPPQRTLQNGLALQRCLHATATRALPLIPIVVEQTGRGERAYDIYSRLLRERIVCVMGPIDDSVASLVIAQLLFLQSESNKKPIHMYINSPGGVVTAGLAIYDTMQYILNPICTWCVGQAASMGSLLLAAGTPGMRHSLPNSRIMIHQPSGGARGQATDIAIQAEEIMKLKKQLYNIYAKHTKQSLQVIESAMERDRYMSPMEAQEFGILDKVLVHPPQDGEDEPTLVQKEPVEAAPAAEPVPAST

[5] = target: T2, ATP-dependent Clp protease proteolytic subunit (Staphylococcus aureus (strain NCTC 8325)); experiment: Induction of thermal stabilization of CLpP in Staphylococcus aureus Newman at 10 times of MIC preincubated for 2 hrs followed by compound washout and incubated under 57.3 to 74.5 degreeC for 3 mins by CETSA
Staphylococcus aureus [6] = experiment: Antibacterial activity against Staphylococcus aureus 8325-4 harboring ClpP mutant assessed as inhibition of visible growth of bacteria incubated for 18 hrs by absorbance based assay; format: functional
Staphylococcus aureus [7] = experiment: Antibacterial activity against CLpP overexpressing Staphylococcus aureus 8325-4 assessed as inhibition of visible growth of bacteria incubated for 18 hrs by absorbance based assay; format: functional, organism-based
Staphylococcus aureus [8] = experiment: microbe, parasite or virus in culture; format: functional; settings: USA300, time 18 hrs
Description: Antibacterial activity against methicillin-resistant Staphylococcus aureus USA300 assessed as inhibition of visible growth of bacteria incubated for 18 hrs by absorbance based analysis

Staphylococcus aureus [9] = experiment: microbe, parasite or virus in culture; format: functional; settings: NRS-70, time 18 hrs
Description: Antibacterial activity against methicillin-resistant Staphylococcus aureus NRS-70 assessed as inhibition of visible growth of bacteria incubated for 18 hrs by absorbance based analysis

Staphylococcus aureus [10] = experiment: microbe, parasite or virus in culture; format: functional; settings: NRS-108, time 18 hrs
Description: Antibacterial activity against methicillin-resistant Staphylococcus aureus NRS-108 assessed as inhibition of visible growth of bacteria incubated for 18 hrs by absorbance based analysis

Staphylococcus aureus [11] = experiment: microbe, parasite or virus in culture; format: functional; settings: time 18 hrs
Description: Antibacterial activity against multidrug-resistant Staphylococcus aureus clinical isolate XJ025 assessed as inhibition of visible growth of bacteria incubated for 18 hrs by absorbance based analysis

Staphylococcus aureus [12] = experiment: Antibacterial activity against Staphylococcus aureus USA300 infected in Zebrafish infection model assessed as increase in zebrafish survival at 0.5 mg/kg pre-infected for 1 hrs followed by compound addition and measured after 5 days; format: functional, organism-based; settings: time 5.0 day
Staphylococcus aureus [13] = experiment: Antibacterial activity against Staphylococcus aureus USA300 infected in female ICR mouse peritonitis model assessed as reduction in bacterial load in liver at 25 to 100 mg/kg, ip pre-infected for 1 hrs followed by compound addition and measured after 5 days relative to control; format: functional; settings: dose 25-100 mg/kg, time 5 day
Staphylococcus aureus [14] = experiment: Antibacterial activity against Staphylococcus aureus USA300 infected in female ICR mouse peritonitis model assessed as reduction in bacterial load in kidney at 25 to 100 mg/kg, ip pre-infected for 1 hrs followed by compound addition and measured after 5 days relative to control; format: functional; settings: dose 25-100 mg/kg, time 5 day
[15] = Toxicity in female ICR mouse model of peritonitis infected with Staphylococcus aureus USA300 assessed as effect on body weight at 50 mg/kg, ip pre-infected for 1 hrs followed by compound addition and measured after 5 days; format: organism-based; settings: in vivo, 120 h, time 5 day

CC[C@H](C)[C@H]1C(=O)N(Cc2ccc(OC)c3ccccc23)C[C@@H]2N(C(=O)NCCCC(F)(F)F)CCC(=O)N12
EC50 [1]: 1100 nM
EC50 [2]: 330 nM
Ratio EC50 [3]: 2.2
ΔTm [4]: 18 °C
Activity [5]: Active
MIC (Staphylococcus aureus [6]): > 128 µg/mL
Activity (Staphylococcus aureus [7]): Active
MIC (Staphylococcus aureus [8]): 0.06 µg/mL (≈ 0.109 µM)
MIC (Staphylococcus aureus [9]): 0.06 µg/mL (≈ 0.109 µM)
MIC (Staphylococcus aureus [10]): 0.06 µg/mL (≈ 0.109 µM)
MIC (Staphylococcus aureus [11]): 0.13 µg/mL (≈ 0.237 µM)
Activity (Staphylococcus aureus [12]): Active; Significant Improvement Observed Compared To 0.5 Mg/Kg Of Vancomycin
Activity (Staphylococcus aureus [13]): 2 log10CFU/g
Activity (Staphylococcus aureus [14]): 2 log10CFU/g
Activity [15]: Non-toxic
